From patent US20090270398A1, “Compounds, Compositions and Methods Comprising Pyridazine Derivatives” (Institute for OneWorld Health, priority 2008, published 2009)

The compounds below were run against T1, CFTR (Homo sapiens, UniProt P13569) (assay: T84 assay (FLIPR membrane potential, forskolin/IBMX-stimulated CFTR channel activity)). Settings: average of at least 2 runs unless annotated n = 1.
T1 construct: results in the phosphorylation and opening of CFTR anion channels
Assay type: cell-based
Method: (§1) For example, Human colonic T84 cells can be acquired from the European Collection of Cell Cultures (ECACC) and grown in standard culture conditions as described by the supplier. On the day before assay 25,000 T84 cells per well are plated into standard black walled, clear bottom 384-well assay plates in standard growth medium consisting of DMEM:F12 with 10% FBS and incubated overnight. On the day of the assay the plates are washed using a standard assay buffer (HBSS with 10 mM Hepes) and incubated for 15 minutes in serum free cell culture medium before the addition of a commercially available membrane potential sensitive fluorescent dye (FLIPR Red membrane potential dye, Molecular Devices Corporation). T84 cells are incubated with the FLIPR Red membrane potential dye for 45 minutes in the presence and absence of test compound before being transferred to a commercially available fluorescence imaging plate reader (FLIPR384, Molecular Devices Corporation). Fluorescence levels are monitored continuously every second for 150 seconds; after an initial 10 second baseline, CFTR channel activity is stimulated through the addition of 10 μM forskolin in the presence of 100 μM of the phosphodiesterase inhibitor iso-butyl-methylxanthine (IBMX). Addition of the forskolin leads to the activation of intracellular adenylyl cylase 1, elevating cAMP levels and results in the phosphorylation and opening of CFTR anion channels. CFTR channel opening causes chloride ion efflux and subsequent depolarization of the cells, which is measured by an increase in fluorescence. CFTR inhibitor compounds prevent cell depolarization and the associated increase in fluorescence.
as §1, with “Human colonic” for “For example, Human colonic”, “T84 cells are acquired from” for “T84 cells can be acquired from”, “(ECACC) and are grown in” for “(ECACC) and grown in”
Unless otherwise indicated, the IC50 values are reported as an average of at least 2 runs. Where only 1 run is used, this is indicated by the annotation “n=1.”

T1 sequence (P13569 whole entry): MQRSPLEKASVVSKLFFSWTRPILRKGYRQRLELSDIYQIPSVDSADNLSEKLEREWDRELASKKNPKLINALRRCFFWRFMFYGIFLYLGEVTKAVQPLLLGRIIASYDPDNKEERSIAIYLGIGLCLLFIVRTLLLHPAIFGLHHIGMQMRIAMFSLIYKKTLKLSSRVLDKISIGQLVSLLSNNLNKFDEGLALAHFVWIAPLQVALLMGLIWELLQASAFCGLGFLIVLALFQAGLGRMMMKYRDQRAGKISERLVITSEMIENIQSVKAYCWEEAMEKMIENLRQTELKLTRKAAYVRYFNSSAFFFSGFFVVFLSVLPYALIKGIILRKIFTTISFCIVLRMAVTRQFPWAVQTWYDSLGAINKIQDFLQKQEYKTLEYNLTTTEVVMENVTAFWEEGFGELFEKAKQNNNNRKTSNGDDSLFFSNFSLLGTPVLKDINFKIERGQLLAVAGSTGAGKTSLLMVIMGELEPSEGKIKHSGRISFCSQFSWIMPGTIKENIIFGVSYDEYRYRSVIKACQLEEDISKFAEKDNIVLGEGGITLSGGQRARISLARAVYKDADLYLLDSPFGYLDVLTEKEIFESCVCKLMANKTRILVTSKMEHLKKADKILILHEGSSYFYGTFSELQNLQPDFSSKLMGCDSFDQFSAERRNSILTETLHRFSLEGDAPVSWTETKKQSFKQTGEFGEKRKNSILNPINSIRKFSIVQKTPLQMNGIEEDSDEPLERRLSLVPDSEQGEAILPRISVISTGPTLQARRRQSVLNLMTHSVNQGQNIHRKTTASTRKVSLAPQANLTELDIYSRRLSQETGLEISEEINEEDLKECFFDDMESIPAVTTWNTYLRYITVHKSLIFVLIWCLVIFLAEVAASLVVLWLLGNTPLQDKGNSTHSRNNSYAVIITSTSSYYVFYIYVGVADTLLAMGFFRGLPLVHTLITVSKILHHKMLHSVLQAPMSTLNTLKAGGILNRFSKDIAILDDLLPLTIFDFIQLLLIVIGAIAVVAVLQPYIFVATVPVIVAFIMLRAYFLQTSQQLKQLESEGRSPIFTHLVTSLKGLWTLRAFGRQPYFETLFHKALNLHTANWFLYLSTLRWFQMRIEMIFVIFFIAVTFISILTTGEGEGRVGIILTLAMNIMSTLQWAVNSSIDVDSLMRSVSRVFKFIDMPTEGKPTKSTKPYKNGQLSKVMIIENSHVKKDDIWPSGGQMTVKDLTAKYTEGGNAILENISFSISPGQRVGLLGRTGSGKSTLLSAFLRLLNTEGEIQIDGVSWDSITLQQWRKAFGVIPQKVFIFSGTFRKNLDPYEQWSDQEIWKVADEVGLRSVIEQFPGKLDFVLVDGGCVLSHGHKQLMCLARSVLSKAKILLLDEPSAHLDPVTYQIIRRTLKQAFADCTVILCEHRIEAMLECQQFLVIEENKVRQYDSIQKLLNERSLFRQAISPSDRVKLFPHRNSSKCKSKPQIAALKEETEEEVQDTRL

Structure (SMILES)	IC50
CN(Cc1ccc(F)c(F)c1)c1ccc(-c2cc(Cl)c(O)c(Cl)c2)nn1 [Compound 121, 2,6-dichloro-4-(6-((3,4-difluorobenzyl)(methyl)amino)pyridazin-3-yl)phenol]	0.23 µM
Oc1c(Cl)cc(-c2ccc(NCc3cc(F)ccc3F)nn2)cc1Cl [Compound 117, 2,6-dichloro-4-(6-(2,5-difluorobenzylamino)pyridazin-3-yl)phenol]	1.36 µM
OCCN(Cc1cccc(OCc2ccccc2Cl)c1)c1ccc(-c2cc(Cl)c(O)c(Cl)c2)nn1 [Compound 130, 2,6-dichloro-4-(6-((3-(2-chlorobenzyloxy)benzyl)(2-hydroxyethyl)amino)pyridazin-3-yl)phenol]	2.27 µM
Oc1c(Br)cc(-c2ccc(OCCc3cccc(Cl)c3Cl)nn2)cc1Br [Compound 94, 2,6-dibromo-4-(6-(2,3-dichlorophenethoxy)pyridazin-3-yl)phenol]	8.03 µM
CCN(Cc1cccc(F)c1)c1ccc(-c2cc(Cl)c(O)c(Cl)c2)nn1 [Compound 127, 2,6-dichloro-4-(6-(ethyl(3-fluorobenzyl)amino)pyridazin-3-yl)phenol]	0.03 µM
Oc1c(Cl)cc(-c2ccc(OCc3ccccc3)nn2)cc1Cl [Compound 119, 4-(6-(benzyloxy)pyridazin-3-yl)-2,6-dichlorophenol]	2.76 µM
Oc1c(Cl)cc(-c2ccc(OCCc3cccc(Cl)c3)nn2)cc1Cl [Compound 104, 2,6-dichloro-4-(6-(3-chlorophenethoxy)pyridazin-3-yl)phenol]	10.4 µM
CN(Cc1cccc(Oc2ccccn2)c1)c1ccc(-c2cc(Cl)c(O)c(Cl)c2)nn1 [Compound 120, 2,6-dichloro-4-(6-(methyl(3-(pyridin-2-yloxy)benzyl)amino)pyridazin-3-yl)phenol]	1.71 µM
Oc1c(Cl)cc(-c2ccc(OCC3(c4ccccc4)CCN(Cc4ccc(Cl)nc4)CC3)nn2)cc1Cl [Compound 108, 2,6-dichloro-4-(6-((1-((6-chloropyridin-3-yl)methyl)-4-phenylpiperidin-4-yl)methoxy)pyridazin-3-yl)phenol]	0.63 µM
Oc1c(Cl)cc(-c2ccc(OCCc3ccccc3)nn2)cc1Cl [Compound 103, 2,6-dichloro-4-(6-phenethoxypyridazin-3-yl)phenol]	5.75 µM
Oc1c(Cl)cc(-c2ccc(OCc3ccsc3)nn2)cc1Cl [Compound 106, 2,6-dichloro-4-(6-(thiophen-3-ylmethoxy)pyridazin-3-yl)phenol]	19.5 µM
Oc1c(Cl)cc(-c2ccc(N3CCC(Cc4ccccc4)CC3)nn2)cc1Cl [Compound 136, 4-(6-(4-benzylpiperidin-1-yl)pyridazin-3-yl)-2,6-dichlorophenol]	24.9 µM
CCN(Cc1ccc(OCc2ccccc2)cc1)c1ccc(-c2cc(Cl)c(O)c(Cl)c2)nn1 [Compound 128, 4-(6-((4-(benzyloxy)benzyl)(ethyl)amino)pyridazin-3-yl)-2,6-dichlorophenol]	0.37 µM
Oc1c(Cl)cc(-c2ccc(NCc3cc(F)cc(C(F)(F)F)c3)nn2)cc1Cl [Compound 138, 2,6-dichloro-4-(6-(3-fluoro-5-(trifluoromethyl)benzylamino)pyridazin-3-yl)phenol]	9.58 µM
COCCN(Cc1ccccc1)c1ccc(-c2cc(Cl)c(O)c(Cl)c2)nn1 [Compound 114, 4-(6-(benzyl(2-methoxyethyl)amino)pyridazin-3-yl)-2,6-dichlorophenol]	0.13 µM
CC(C)(C)OC(=O)N1CCC(COc2ccc(-c3cc(Cl)c(O)c(Cl)c3)nn2)(c2ccccc2)CC1 [Compound 101, tert-butyl 4-((6-(3,5-dichloro-4-hydroxyphenyl)pyridazin-3-yloxy)methyl)-4-phenylpiperidine-1-carboxylate]	12.7 µM
OCCN(Cc1ccccc1Cl)c1ccc(-c2cc(Cl)c(O)c(Cl)c2)nn1 [Compound 112, 2,6-dichloro-4-(6-((2-chlorobenzyl)(2-hydroxyethyl)amino)pyridazin-3-yl)phenol]	1.53 µM
